Source: patent publication US4405627A, “Diphenylpropylamino-pyridine compounds useful as medicines” (Italiana Schoum S.p.A., priority 1979, dated 1983)
pIC50: −log10 of the molar value. Structures can show the parent of a compound that is named as a salt.

How the values were obtained:
[1] = tested on: rabbit ileum; assay: Spontaneous motility in vitro of rabbit ileum; design: species or system rabbit (New Zealand male); conditions: Oryctolagus cuniculus; 50% reduction of amplitude of the basal contraction; Tyrode, 37° C.; read-out: CI50 (the source's name)
Protocol: The spontaneous motility of the preparations was measured by a isotonic transducer connected with a microdynamometer. Each preparation was previously left dipped for about one hour in the solution up to reach the osmotic equilibrium.
After this time the single compounds were poured in the bath in gradual doses up to notice the quite total disappearance of spontaneous activity in the organ. For sake of comparison parallel tests with papaverine were carried out.

[2] = tested on: rabbit ileum; assay: BaCl2-induced contraction on isolated rabbit ileum; conditions: Oryctolagus cuniculus; 50% reduction of the BaCl2-induced contraction; BaCl2 50 mcg/ml; read-out: CI50 (the source's name)
Description: The activity of same compounds in antagonizing the spasm as caused by BaCl2 introduced in the bath at a concentration of 50 mcg/ml one minute before each test was studied. Also for this preparation a comparison with papaverine was at last carried out.

[3] = tested on: guinea pig ileum; assay: Acetylcholine-induced contraction on guinea pig ileum in vitro; design: species or system guinea pig (Whitish female); conditions: for pIC50: Cavia porcellus, acetylcholine 0.1 mcg/ml, Tyrode, 37° C., 3 minutes before spasmogen, read-out: CI50 (the source's name); for acetylcholine-induced contraction on guinea pig ileum: result in words
Protocol: (§1) On the guinea pig ileum, which has a minimum intrinsic motility but a remarkable sensibility to agents causing a contracture or a relaxation of the intestinal smooth muscular system, it was possible to further evaluate the spasmolytic activity of the examined substances. As spasmogenic agents acetylcholine and BaCl2 were used which were respectively added to the bath at final concentrations of 0.1 mcg/ml and 50 mcg/ml.
(§2) Ten preparations of guinea pig ileum for each compound were prepared, yet maintaining the same dose range which was used on rabbit ileum.
(§3) The contractions were measured by means of an isotonic transducer connected with a microdynamometer. Each preparation was left dipped for about 30 minutes up to reach the equilibrium.
(§4) After this time, the single doses of each substance to be examined were introduced three minutes before the spasmogenic substance which was contacted with the preparation for 1 minute. Before the subsequent dose of drug was introduced, the tested organ was allowed to recover the basal conditions and this was ascertained by using the only spasmogenic substance. The process was repeated for all the other concentrations. Afterwards the comparison with the reference spasmolytic substance having a known activity, namely papaverine, was carried out yet working in the same conditions and according to the same procedure.

[4] = tested on: guinea pig ileum; assay: BaCl2-induced contraction on guinea pig ileum in vitro; design: species or system guinea pig (Whitish female); conditions: for pIC50: Cavia porcellus, BaCl2 50 mcg/ml, Tyrode, 37° C., 3 minutes before spasmogen, read-out: CI50 (the source's name); for BaCl2-induced contraction on guinea pig ileum: result in words
Protocol: as §1, §2, §3, §4

[5] = tested on: small intestine; assay: Effect on the intestinal progress of opaque meal in rat; type: in vivo, rat (Male Wistar); conditions: for Progress %: 40 minutes after opaque meal, mean of ten ± standard error, controls 81.76 ± 2.33
Protocol: Male Wistar rats weighing 150-180 g were employed subdivided in groups of ten subjects, which were maintained fasting for 18 hours before the test.
Two administration ways were considered: oral and intraperitoneal.
In the first set of tests to every group of animals each compound was orally administered in the form of an aqueous solution or suspension in gum-arabic (10% in water) 40 minutes before an opaque meal consisting of a suspension of 5% vegetable charcoal in gum-arabic (20% in water).
The animals were killed by cranial injury 40 minutes after the oral administration of the opaque meal and the small intestine was drawn. To the control group an equal volume of saline was administered in the same administration way. The second set of tests was carried out by administering intraperitoneally the compounds 30 minutes before the opaque meal. The animals were killed 40 minutes after the swallowing of the alimentary bolus and the small intestine was drawn; to the control group an equal volume of saline was injected. The total length of small intestine and the progress of opaque meal were measured in each killed animal.

[6] = Acute toxicity (DL50) in mouse; type: in vivo; conditions: mouse, in vivo
Protocol: (§5) The determination of the lethal dose to 50% of the animals which were treated with the examined substances was obtained by using male Swiss mice averaging 22 g and by considering two administration ways: oral and intraperitoneal.
(§6) Groups of six animals of each dose were prepared which were kept under observation for 7 days and fasting since the evening before the experience.
(§7) During the observation period possible and clear changes in activity and behaviour were controlled by using the Irwin test: a behavioural outline of the treated animals was obtained with respect to other subjects which received reference drugs.
(§8) The calculation of acute toxicity was carried out by using the Litchfield and Wilcoxon procedure (J. Pharmac. Exp. Ther. 96, 99, 1949).
(§9) The acute toxicity values in mg/kg are given in table 9 in the form of average values with the relevant fiducial limits in comparison with papaverine.

[7] = tested on: carbachol-stimulated intestinal motility; assay: Effect on intestinal progress in rats after excitation with carbachol; type: in vivo, rat; conditions: 40 mg/kg i.p.; carbachol 30 mcg/kg i.p.; mean of ten ± standard errors; non-stimulated controls 55.7 ± 2.23, stimulated controls 77.95 ± 1.72
Protocol: Subsequently a further series of tests were carried out in order to evaluate the capability of some examined compounds in hindering the stimulating action on intestinal motility of a dose of carbachol at the concentration of 30 mcg/kg when intraperitoneally administered. Carbachol or carbamylcholine chloride is a known substance endowed with parasympathomimetic action.
The control group was given an equal volume of saline.
The survey of the data as given in tables 6 was carried out as previously described by considering the percent intestinal progress of opaque meal with respect to the total length of small intestine.

[8] = tested on: effects caused by Tremorin; assay: Central and peripheral anticholinergic activity in mouse after administration of Tremorin; type: in vivo, mouse (Swiss male); conditions: for Tremors / Miosis / Ptyalism: Tremorin 25 mg/kg i.p.; for Tremors: central activity; for Miosis / Ptyalism: peripheral activity; for antagonism of the effects of Tremorin / anticholinergic side effects: result in words, hydrochloride; as to Miosis: key: +: Presence of the effect (ptyalism, miosis, tremors); -: Lack of the effect (ptyalism, miosis, tremors); as to Ptyalism: key: +: Presence of the effect (ptyalism, miosis, tremors); -: Lack of the effect (ptyalism, miosis, tremors); as to Tremors: key: +: Presence of the effect (ptyalism, miosis, tremors); -: Lack of the effect (ptyalism, miosis, tremors)
Protocol: (§10) In order to evaluate the possible undesirable collateral systemic effects, tests of central and peripheral anticholinergic activity were carried out by using two animal species, mouse and rat.
In the first series of tests Swiss male mice averaging 25 g were used which were subdivided in three groups of 8 animals. […] The third, control group was given an equal volume of saline.
In watching the effects caused by Tremorin during the development of its action, beside the time for the appearance of tremors as an index of the central activity, further parameters such as ptyalism and miosis were contemplated as indexes of peripheral activity.

[9] = tested on: acetylcholine-induced chromodacryorrhea; assay: Anticholinergic activity on chromodacryorrhea from acetylcholine; type: in vivo, rat (male Wistar); conditions: for Chromodacryorrhea: acetylcholine 160 mcg s.c.; for effect on acetylcholine-induced chromodacryorrhea: 50 mg/kg, result in words
Protocol: as §10
Another series of experiments was carried out on male Wistar rats averaging 150 g in order to point out the anticholinergic activity at the glandular level.
A first control group consisting of six animals was subcutaneously injected with 160 mcg of acetylcholine.

[10] = tested on: mouse; assay: Acute toxicity (DL50) in mouse; type: in vivo; conditions: result in words; orally and intraperitoneally
Protocol: as §5, §6, §7, §8, §9

[11] = Solubility; type: physicochemical; conditions: saline; read-out: maximum dose consistent with the total solubility in saline
[12] = ip, average values with fiducial limits, 7 days observation
[13] = po, os, average values with fiducial limits, 7 days observation

Compound `CC[n+]1cccc(NCCC(c2ccccc2)c2ccccc2)c1` [3-(3',3'-diphenylpropyl-1'-amino)-1-ethylpyridinium iodide] has a pIC50 [1] of 4.80, a pIC50 [2] of 4.46 and a pIC50 [3] of 4.92.

`COc1ccc(Cc2nccc3cc(OC)c(OC)cc23)cc1OC` [Papaverine hydrochloride, reference compound] showed a pIC50 [1] of 4.41, a pIC50 [2] of 4.25 and a pIC50 [4] of 5.04. It also gave a pIC50 [3] of 5.07, a Progress % ([5]; 200 mg/kg os) of 70.2 ± 2.61% and an LD50 at 168 h [6, 12] of 66 mg/kg. For the same compound, the LD50 at 168 h [6, 13] was 315 mg/kg.

Work on `CC[n+]1ccc(NCCC(c2ccccc2)c2ccccc2)cc1` [4-(3',3'-diphenylpropyl-1'-amino)-1-ethyl-pyridinium iodide] yielded a pIC50 [1] of 4.62, a pIC50 [2] of 4.66 and a pIC50 [4] of 5.05. The pIC50 [3] was 5.00.

With `C[n+]1ccc(NCCC(c2ccccc2)c2ccccc2)cc1` [4-(3',3'-diphenylpropyl-1'-amino)-1-methyl-pyridinium iodide] the pIC50 [1] was 4.74, the pIC50 [2] was 4.85 and the pIC50 [3] was 4.80.

For `C[n+]1ccccc1NCCC(c1ccccc1)c1ccccc1` [2-(3',3'-diphenylpropyl-1'-amino)-1-methylpyridinium iodide], the pIC50 [1] was 4.59, the pIC50 [2] was 5.00 and the pIC50 [4] was 5.37. The “BaCl2-induced contraction on guinea pig ileum” value (from here on “BaCl2-induced contraction”) [4] was “more active than papaverine”, the pIC50 [3] was 5.34 and the “acetylcholine-induced contraction on guinea pig ileum” value (from here on “acetylcholine-induced contraction”) [3] was “also effective on the acetylcholine-induced contraction”. For the same compound, the Progress % ([5]; 100 mg/kg os) was 73.63 ± 4.33% and the LD50 at 168 h [6, 13] was 350 mg/kg.

For `c1ccc(C(CCNc2ccccn2)c2ccccc2)cc1` [N-(2'-pyridyl)-3,3-diphenylpropylamine hydrochloride], the pIC50 [1] was 4.89, the pIC50 [2] was 4.85 and the pIC50 [4] was 5.25. For the same compound, the “BaCl2-induced contraction” value [4] was “more active than papaverine”, the pIC50 [3] was 4.96 and the “acetylcholine-induced contraction” value [3] was “also effective on the acetylcholine-induced contraction”. The Progress % ([5]; 20 mg/kg i.p.) was 62.10 ± 2.54%, the Progress % ([5]; 50 mg/kg os) was 67.65 ± 2.54% and the “reducing the progress of an opaque meal” value ([5]; oral and intraperitoneal, result in words) was “the most active compound in reducing the progress of an opaque meal in both of the considered administration ways”. For the same compound, the Progress % [7] was 42.25 ± 3.34%, the Tremors ([8]; 50 mg/kg i.p.) was “+” and the Miosis ([8]; 50 mg/kg i.p.) was “+”. The Ptyalism ([8]; 50 mg/kg i.p.) was “+”, the Tremors ([8]; 100 mg/kg i.p.) was “+” and the Miosis ([8]; 100 mg/kg i.p.) was “+”. The Ptyalism ([8]; 100 mg/kg i.p.) was “+”, the “antagonism of the effects of Tremorin / anticholinergic side effects” value ([8]; listed as N-(2'-pyridyl)-3,3-diphenyl-propylamine hydrochloride) was “does not antagonize the ffects of Tremorin neither at a central level nor at a peripheral level” and the “antagonism of the effects of Tremorin / anticholinergic side effects” value ([8]; listed as N-(2'-pyridyl)-3,3-diphenylpropylamine hydrochloride) was “does not show anticholinergic side effects at a central level also at high doses”. For the same compound, the Chromodacryorrhea ([9]; 50 mg/kg i.p.) was “+”, the “effect on acetylcholine-induced chromodacryorrhea” value [9] was “do not modify the acetylcholine-induced chromodacryorrhea” and the LD50 at 168 h ([6]; ip) was 360 mg/kg. For the same compound, the LD50 at 168 h ([6]; po) was over 1500 mg/kg, the acute toxicity [10] was “The less toxic compound” and the solubility [11] was 1 mg/mL.

For `C[n+]1cccc(NCCC(c2ccccc2)c2ccccc2)c1` [3-(3',3'-diphenylpropyl-1'-amino)-1-methylpyridinium iodide], the pIC50 [1] was 4.82, the pIC50 [2] was 4.85 and the pIC50 [3] was 4.77.

With `c1ccc(C(CCNc2cccnc2)c2ccccc2)cc1` [N-(3'-pyridyl)-3,3-diphenylpropylamine hydrochloride] the pIC50 [1] was 4.92, the pIC50 [2] was 4.55 and the pIC50 [4] was 5.17. The “BaCl2-induced contraction” value [4] was “more active than papaverine”, the pIC50 [3] was 5.00 and the “acetylcholine-induced contraction” value [3] was “also effective on the acetylcholine-induced contraction”. It also gave a Progress % ([5]; 20 mg/kg i.p.) of 75.06 ± 5.94%, a Progress % ([5]; 100 mg/kg os) of 79.10 ± 5.3% and a Progress % [7] of 49.85 ± 3.34%. The Tremors ([8]; 50 mg/kg i.p.) was “-”, the Miosis ([8]; 50 mg/kg i.p.) was “+” and the Ptyalism ([8]; 50 mg/kg i.p.) was “+”. For the same compound, the Tremors ([8]; 100 mg/kg i.p.) was “-”, the Miosis ([8]; 100 mg/kg i.p.) was “-” and the Ptyalism ([8]; 100 mg/kg i.p.) was “-”. For the same compound, the Chromodacryorrhea ([9]; 50 mg/kg i.p.) was “+”, the “effect on acetylcholine-induced chromodacryorrhea” value [9] was “do not modify the acetylcholine-induced chromodacryorrhea” and the LD50 at 168 h [6, 12] was 340 mg/kg. For the same compound, the LD50 at 168 h [6, 13] was over 800 mg/kg and the solubility [11] was 1 mg/mL.

With `CN1[C@@H]2CC[C@H]1C[C@@H](OC(=O)C(CO)c1ccccc1)C2` (stereo partly shown) [Atropine sulfate, reference compound] the Tremors ([8]; 60 mg/kg i.p.) was “-”, the Miosis ([8]; 60 mg/kg i.p.) was “-” and the Ptyalism ([8]; 60 mg/kg i.p.) was “-”. For the same compound, the Chromodacryorrhea ([9]; 1 mg/kg i.p.) was “-”.

With `CC[n+]1ccccc1NCCC(c1ccccc1)c1ccccc1` [2-(3',3'-diphenylpropyl-1'-amino)-1-ethylpyridinium iodide] the pIC50 [1] was 4.74, the pIC50 [4] was 5.47 and the pIC50 [3] was 5.21.
